According to patent publication US9498450B2, “1-aminocyclohexane derivatives for the treatment of cochlear tinnitus” (MERZ PHARMA GmbH & CO. KGaA, priority 2007, dated 2016):

System: subjects with subjective tinnitus of at least moderate severity
Assay: Double blind placebo controlled pilot trial of neramexane for treatment of tinnitus (TBF-12/THF-12 total score)
Assay type: in vivo, human
Conditions: for Change in TBF-12 total score, Week 16 Neramexane-Placebo LSMean / TBF-12 total score, Change LSMean / TBF-12 total score, Neramexane-Placebo LSMean Diff. ± SE / TBF-12 total score, Week 16 Change Mean ± SD / TBF-12 total score, Week 16 Actual Mean ± SD: ITT-LOCF; for TBF-12 total score, Change LSMean / TBF-12 total score, Neramexane-Placebo LSMean Diff. ± SE / TBF-12 total score, Week 16 Change Mean ± SD: baseline to week 16; for improvement as compared to placebo treatment (difference): 50 mg dose group
Procedure: Visit 1 (screening): After signing the consent form, the subject underwent a physical examination and clinical laboratory testing. Patient eligibility for the study was evaluated via a check of inclusion/exclusion criteria. An initial Tinnitus Interview was conducted. The subject also completed a Tinnitus-Beeinträchtigungs-Fragebogen (THF-12) (i.e., a 12-item German modified and validated version (Greimel K V et al., Tinnitus-Beeinträchtigungs-Fragebogen (THF-12). Manual. Frankfurt am Main: Swets & Zeitlinger B. V.; 2000) of the 25-item Tinnitus Handicap Inventory or THI (Newman C W, et al. Development of the Tinnitus Handicap Inventory. Arch Otolaryngol Head Neck Surg 1996; 122(2): 143-148; Newman C W, et al. Psychometric adequacy of the Tinnitus Handicap Inventory (THI) for evaluating treatment outcome. J Am Acad Audiol 1998; 9(2): 153-160.)), a Hospital Anxiety and Depression Scale—Depression Subscale (HADS-D) Questionnaire and a Hyperacusis (Geräuschüberempfindlichkeit-Fragenbogen (GÜF)) Questionnaire (if applicable).
Visit 2 (baseline): The subject was asked about adverse events and changes in concomitant medication/disease, which events/changes were documented. The subject was evaluated for study eligibility based on a review of the inclusion/exclusion criteria. Trial procedures as well as allowed and forbidden concomitant medications were reviewed with the subject. An initial Tinnitus Interview was conducted. The subject also completed a THF-12, HADS-D Questionnaire and GÜF Questionnaire (if applicable). The subject was enrolled in the study and study medication (placebo or neramexane) was dispensed as described below.
Visit 6 (Week 16, end of treatment): This visit occurred at the end of the 12-week fixed-dose double-blind treatment period. The subject was asked about adverse events and changes in concomitant medication/disease, which changes are documented. A clinical laboratory evaluation was performed. A follow-up Tinnitus Interview was conducted, and the subject completed a THF-12, HADS-D Questionnaire and GÜF Questionnaire (if applicable). Pure-tone audiometry (air conduction) was also conducted.
Primary Outcome • The change in THF-12 total score from baseline (Visit 2) to the endpoint visit (Visit 6, i.e. Week 16) was the primary efficacy endpoint in this study.
All efficacy analyses were performed on the ITT population using the last-observation-carried-forward (LOCF) approach. For sensitivity purposes an analysis of the per-protocol set and of observed cases was performed additionally. All statistical tests used for testing the primary efficacy (confirmatory testing) and secondary efficacy criteria (exploratory), and all other statistical tests used for exploratory analyses were two-sided hypothesis tests performed at the 5% significance level. For all variables standard descriptive statistics were calculated.
Change from baseline (Visit 2) to Week 16 in THF-12 total score was analyzed using a two-way ANCOVA model with treatment group and study centers as factors and baseline THF-12 total score as covariate. […]

[1] = 25 mg/d, subjects with mild hearing loss
[2] = 25 mg/d, subjects with tinnitus duration 3 to <8 months
[3] = 25 mg/d, total study population
[4] = 50 mg/d, subjects with mild hearing loss
[5] = 50 mg/d, subjects with tinnitus duration 3 to <8 months
[6] = 50 mg/d, total study population
[7] = 75 mg/d, subjects with mild hearing loss
[8] = 75 mg/d, subjects with tinnitus duration 3 to <8 months
[9] = 75 mg/d, total study population

CC1(C)CC(C)(C)CC(C)(N)C1 [Neramexane, 1-amino-1,3,3,5,5-pentamethylcyclohexane]
Change in TBF-12 total score, Week 16 Neramexane-Placebo LSMean (25 mg/d, HADS-D Anxiety subscale 0-7 at baseline): 0.2 | Change in TBF-12 total score, Week 16 Neramexane-Placebo LSMean (25 mg/d, HADS-D Anxiety subscale 8-10 at baseline): −2.3 | Change in TBF-12 total score, Week 16 Neramexane-Placebo LSMean (25 mg/d, HADS-D Anxiety subscale >10 at baseline): 2.3 | Change in TBF-12 total score, Week 16 Neramexane-Placebo LSMean (25 mg/d, HADS-D Depression subscale 0-7 at baseline): −0.3 | Change in TBF-12 total score, Week 16 Neramexane-Placebo LSMean (25 mg/d, HADS-D Depression subscale 8-10 at baseline): 0.6 | Change in TBF-12 total score, Week 16 Neramexane-Placebo LSMean (25 mg/d, HADS-D Depression subscale >10 at baseline): 3.9 | TBF-12 total score, Change LSMean [1]: −1.3 | TBF-12 total score, Neramexane-Placebo LSMean Diff. ± SE [1]: 0.7 ± 0.9 | TBF-12 total score, Week 16 Change Mean ± SD [1]: −1.5 ± 3.4 | TBF-12 total score, Week 16 Actual Mean ± SD (25 mg/d, subjects with mild hearing loss, score range 0-24): 13.1 ± 5.8 | TBF-12 total score, Change LSMean [2]: −2.2 | TBF-12 total score, Neramexane-Placebo LSMean Diff. ± SE [2]: 0.0 ± 0.8 | TBF-12 total score, Week 16 Change Mean ± SD [2]: −2.5 ± 3.0 | TBF-12 total score, Change LSMean [3]: −1.8 | TBF-12 total score, Neramexane-Placebo LSMean Diff. ± SE [3]: 0.5 ± 0.5 | TBF-12 total score, Week 16 Change Mean ± SD [3]: −2.0 ± 3.4 | improvement as compared to placebo treatment (difference) (patients who showed a mild hearing loss, post-hoc p=0.024): −1.9 points | improvement as compared to placebo treatment (difference) (patients whose onset of tinnitus was three to eight months before treatment, post-hoc p=0.019): −1.9 points | Change in TBF-12 total score, Week 16 Neramexane-Placebo LSMean (50 mg/d, HADS-D Anxiety subscale 0-7 at baseline): −0.5 | Change in TBF-12 total score, Week 16 Neramexane-Placebo LSMean (50 mg/d, HADS-D Anxiety subscale 8-10 at baseline): −2.9 | Change in TBF-12 total score, Week 16 Neramexane-Placebo LSMean (50 mg/d, HADS-D Anxiety subscale >10 at baseline): 0.6 | Change in TBF-12 total score, Week 16 Neramexane-Placebo LSMean (50 mg/d, HADS-D Depression subscale 0-7 at baseline): −1.3 | Change in TBF-12 total score, Week 16 Neramexane-Placebo LSMean (50 mg/d, HADS-D Depression subscale 8-10 at baseline): −1.1 | Change in TBF-12 total score, Week 16 Neramexane-Placebo LSMean (50 mg/d, HADS-D Depression subscale >10 at baseline): 3.3 | TBF-12 total score, Change LSMean [4]: −3.9 | TBF-12 total score, Neramexane-Placebo LSMean Diff. ± SE [4]: −1.9 ± 0.8 | TBF-12 total score, Week 16 Change Mean ± SD [4]: −3.8 ± 3.9 | TBF-12 total score, Week 16 Actual Mean ± SD (50 mg/d, subjects with mild hearing loss, score range 0-24): 11.5 ± 5.2 | TBF-12 total score, Change LSMean [5]: −4.0 | TBF-12 total score, Neramexane-Placebo LSMean Diff. ± SE [5]: −1.9 ± 0.8 | TBF-12 total score, Week 16 Change Mean ± SD [5]: −4.2 ± 3.9 | TBF-12 total score, Week 16 Actual Mean ± SD (50 mg/d, subjects with tinnitus duration 3 to <8 months, score range 0-24): 10.0 ± 5.1 | TBF-12 total score, Change LSMean [6]: −3.1 | TBF-12 total score, Neramexane-Placebo LSMean Diff. ± SE [6]: −0.8 ± 0.5 | TBF-12 total score, Week 16 Change Mean ± SD [6]: −3.2 ± 4.1 | Change in TBF-12 total score, Week 16 Neramexane-Placebo LSMean (75 mg/d, HADS-D Anxiety subscale 0-7 at baseline): 0.1 | Change in TBF-12 total score, Week 16 Neramexane-Placebo LSMean (75 mg/d, HADS-D Anxiety subscale 8-10 at baseline): −3.1 | Change in TBF-12 total score, Week 16 Neramexane-Placebo LSMean (75 mg/d, HADS-D Anxiety subscale >10 at baseline): 0.3 | Change in TBF-12 total score, Week 16 Neramexane-Placebo LSMean (75 mg/d, HADS-D Depression subscale 0-7 at baseline): −0.9 | Change in TBF-12 total score, Week 16 Neramexane-Placebo LSMean (75 mg/d, HADS-D Depression subscale 8-10 at baseline): 0.0 | Change in TBF-12 total score, Week 16 Neramexane-Placebo LSMean (75 mg/d, HADS-D Depression subscale >10 at baseline): 0.4 | TBF-12 total score, Change LSMean [7]: −1.8 | TBF-12 total score, Neramexane-Placebo LSMean Diff. ± SE [7]: −0.2 ± 0.9 | TBF-12 total score, Week 16 Change Mean ± SD [7]: −1.9 ± 3.2 | TBF-12 total score, Week 16 Actual Mean ± SD (75 mg/d, subjects with mild hearing loss, score range 0-24): 12.0 ± 4.6 | TBF-12 total score, Change LSMean [8]: −3.3 | TBF-12 total score, Neramexane-Placebo LSMean Diff. ± SE [8]: −1.1 ± 0.8 | TBF-12 total score, Week 16 Change Mean ± SD [8]: −3.4 ± 4.0 | TBF-12 total score, Week 16 Actual Mean ± SD (75 mg/d, subjects with tinnitus duration 3 to <8 months, score range 0-24): 10.6 ± 5.0 | TBF-12 total score, Week 16 Actual Mean ± SD [9]: 11.0 ± 5.1 | TBF-12 total score, Change LSMean [9]: −2.8 | TBF-12 total score, Neramexane-Placebo LSMean Diff. ± SE [9]: −0.5 ± 0.5 | TBF-12 total score, Week 16 Change Mean ± SD [9]: −2.9 ± 3.9 | benefit compared to patients with HADS score below 10 at baseline (50 or 75 mg daily dose monotherapy, patients with HADS total score of 10 or more at baseline): weaker benefit | response (effect in treating tinnitus) compared to total study population (patients treated within three to eight months of onset of tinnitus and patients with mild hearing loss): better response | response to treatment (subgroup analysis) (subjects classified by investigators as suffering from cochlear tinnitus): responded well
